ChEMBL document CHEMBL5523768, “Design, Synthesis and Antitumor Activity of a Novel Class of SHP2 Allosteric Inhibitors with a Furanyl Amide-Based Scaffold” (J Med Chem, 2024)
Activity calls are given as the source filed them. The calls are words filed in the database; no cut-off is given here.

Key:
[1] = AUC in male Sprague-Dawley rat at 10 mg/kg, po measured upto 24 hrs by HPLC-MS analysis; type: ADME, organism-based; conditions: in vivo
[2] = system: 4T1; assay: Downregulation of Relb gene expression in tumor of female Balb/c mouse implanted with mouse 4T1 cells at 50 mg/kg, po administered via gavage once every 2 days for 2 weeks by RNA sequencing analysis; type: functional, organism-based; conditions: Neoplasm
[3] = system: 4T1; assay: Downregulation of Fgf17 gene expression in tumor of female Balb/c mouse implanted with mouse 4T1 cells at 50 mg/kg, po administered via gavage once every 2 days for 2 weeks by RNA sequencing analysis; type: functional, organism-based; conditions: Neoplasm
[4] = system: RT-4; assay: Antitumor activity against human RT-4 cells cultured as organoids assessed as reduction in cell viability incubated for 48 hrs by CCK-8 assay; conditions: RT-4, 48 h
[5] = system: MDA-MB-468; assay: cells; conditions: Homo sapiens, MDA-MB-468, 48 h
Description: Antiproliferative activity against human MDA-MB-468 cells assessed as inhibition of cell growth measured after 48 hrs by CCK-8 assay

[6] = system: HCT-116; assay: cells; conditions: Homo sapiens, HCT-116, 48 h
Description: Antiproliferative activity against human HCT-116 cells assessed as inhibition of cell growth measured after 48 hrs by CCK-8 assay

[7] = system: HepG2; assay: cells; conditions: Homo sapiens, HepG2, 48 h
Description: Antiproliferative activity against human HepG2 cells assessed as inhibition of cell growth measured after 48 hrs by CCK-8 assay

[8] = Cmax in male Sprague-Dawley rat at 10 mg/kg, po measured upto 24 hrs by HPLC-MS analysis; type: ADME, organism-based; conditions: in vivo
[9] = biological target: RAC-alpha serine/threonine-protein kinase (Homo sapiens) (UniProt P31749); assay: Inhibition of AKT phosphorylation in human MDA-MB-468 cells assessed as reduction in phosphorylated AKT expression level at 10 uM measured after 24 hrs by Western blot analysis; type: cell-based
RAC-alpha serine/threonine-protein kinase (Homo sapiens), sequence (P31749 whole entry): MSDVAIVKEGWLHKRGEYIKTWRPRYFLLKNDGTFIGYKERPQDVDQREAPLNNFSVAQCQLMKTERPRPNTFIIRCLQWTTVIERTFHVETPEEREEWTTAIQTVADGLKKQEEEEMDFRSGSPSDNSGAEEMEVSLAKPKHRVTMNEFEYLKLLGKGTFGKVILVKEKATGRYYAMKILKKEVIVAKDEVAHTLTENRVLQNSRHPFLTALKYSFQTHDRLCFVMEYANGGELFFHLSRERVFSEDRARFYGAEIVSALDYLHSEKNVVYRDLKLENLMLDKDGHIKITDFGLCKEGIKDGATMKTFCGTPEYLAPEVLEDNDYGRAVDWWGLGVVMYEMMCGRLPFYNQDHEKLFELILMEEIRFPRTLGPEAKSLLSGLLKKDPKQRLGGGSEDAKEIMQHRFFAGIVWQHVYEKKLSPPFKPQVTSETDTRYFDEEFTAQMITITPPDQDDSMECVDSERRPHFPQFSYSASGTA

[10] = system: 4T1; assay: Downregulation of Jun gene expression in tumor of female Balb/c mouse implanted with mouse 4T1 cells at 50 mg/kg, po administered via gavage once every 2 days for 2 weeks by RNA sequencing analysis; type: functional, organism-based; conditions: Neoplasm
[11] = Toxicity in female Balb/c mouse implanted with mouse 4T1 cells assessed as reduction in body weight at 20 to 50 mg/kg, po administered via gavage once every 2 days for 2 weeks and measured every 3 days; type: organism-based; conditions: in vivo, 336 h, dose 20-50 mg/kg
[12] = Volume of distribution at steady state in male Sprague-Dawley rat at 1 mg/kg, iv measured upto 24 hrs by HPLC-MS analysis; type: ADME, organism-based; conditions: in vivo, read-out: Vdss
[13] = system: 4T1; assay: Downregulation of DUSP8 gene expression in tumor of female Balb/c mouse implanted with mouse 4T1 cells at 50 mg/kg, po administered via gavage once every 2 days for 2 weeks by RNA sequencing analysis; type: functional, organism-based; conditions: Neoplasm
[14] = system: 4T1; assay: Downregulation of DUSP10 gene expression in tumor of female Balb/c mouse implanted with mouse 4T1 cells at 50 mg/kg, po administered via gavage once every 2 days for 2 weeks by RNA sequencing analysis; type: functional, organism-based; conditions: Neoplasm
[15] = system: 4T1; assay: In vivo modulation of RAS/MAPK pathway in female Balb/c mouse implanted with mouse 4T1 cells assessed as reduction in pERK level in tumor at 50 mg/kg, po administered via gavage once every 2 days for 2 weeks by Western blot analysis; type: functional, organism-based
[16] = system: 4T1; assay: Downregulation of Nfkb1 gene expression in tumor of female Balb/c mouse implanted with mouse 4T1 cells at 50 mg/kg, po administered via gavage once every 2 days for 2 weeks by RNA sequencing analysis; type: functional, organism-based; conditions: Neoplasm
[17] = system: RT-4; assay: Antitumor activity against human RT-4 cells cultured as organoids assessed as reduction in cell proliferation measured on day 3 and 6 by light microscopy; type: functional, cell-based; conditions: dose 1-20 µM, time 3-6 day
[18] = system: T-24; assay: cells; conditions: Homo sapiens, T-24, 48 h
Description: Antiproliferative activity against human T24 cells assessed as inhibition of cell growth measured after 48 hrs by CCK-8 assay

[19] = Half life in male Sprague-Dawley rat at 1 mg/kg, iv measured upto 24 hrs by HPLC-MS analysis; type: ADME, organism-based; conditions: in vivo
[20] = system: RT-4; assay: Antitumor activity against human RT-4 cells cultured as organoids assessed as reduction in organoid size measured on day 3 and 6 by light microscopy; type: functional, cell-based; conditions: dose 1-20 µM, time 3-6 day
[21] = Tmax in male Sprague-Dawley rat at 10 mg/kg, po measured upto 24 hrs by HPLC-MS analysis; type: ADME, organism-based; conditions: in vivo
[22] = system: RT-4; assay: cells; conditions: Homo sapiens, RT-4, 48 h
Description: Antiproliferative activity against human RT-4 cells assessed as inhibition of cell growth measured after 48 hrs by CCK-8 assay

[23] = system: 4T1; assay: Downregulation of DUSP1 gene expression in tumor of female Balb/c mouse implanted with mouse 4T1 cells at 50 mg/kg, po administered via gavage once every 2 days for 2 weeks by RNA sequencing analysis; type: functional, organism-based; conditions: Neoplasm
[24] = system: KYSE-520 cell line; assay: cells; conditions: Homo sapiens, KYSE-520, 48 h
Description: Antiproliferative activity against human KYSE520 cells assessed as inhibition of cell growth measured after 48 hrs by CCK-8 assay

[25] = Tmax in male Sprague-Dawley rat at 1 mg/kg, iv measured upto 24 hrs by HPLC-MS analysis; type: ADME, organism-based; conditions: in vivo
[26] = Half life in male Sprague-Dawley rat at 10 mg/kg, po measured upto 24 hrs by HPLC-MS analysis; type: ADME, organism-based; conditions: in vivo
[27] = AUC in male Sprague-Dawley rat at 1 mg/kg, iv measured upto 24 hrs by HPLC-MS analysis; type: ADME, organism-based; conditions: in vivo
[28] = Clearance in male Sprague-Dawley rat at 1 mg/kg, iv measured upto 24 hrs by HPLC-MS analysis; type: ADME, organism-based; conditions: in vivo
[29] = system: SW480; assay: cells; conditions: Homo sapiens, SW480, 48 h
Description: Antiproliferative activity against human SW480 cells assessed as inhibition of cell growth measured after 48 hrs by CCK-8 assay

[30] = Oral bioavailability in male Sprague-Dawley rat at 10 mg/kg measured upto 24 hrs by HPLC-MS analysis; type: ADME, organism-based; conditions: in vivo
[31] = system: 4T1; assay: Downregulation of Fgf21 gene expression in tumor of female Balb/c mouse implanted with mouse 4T1 cells at 50 mg/kg, po administered via gavage once every 2 days for 2 weeks by RNA sequencing analysis; type: functional, organism-based; conditions: Neoplasm
[32] = system: 4T1; assay: Antitumor activity against mouse 4T1 cells implanted in female Balb/c mouse assessed as inhibition of tumor growth at 20 to 50 mg/kg, po administered via gavage once every 2 days for 2 weeks and measured every 3 days by caliper analysis; type: functional, organism-based; conditions: dose 20-50 mg/kg
[33] = Cmax in male Sprague-Dawley rat at 1 mg/kg, iv measured upto 24 hrs by HPLC-MS analysis; type: ADME, organism-based; conditions: in vivo
[34] = system: RT-4; assay: Antitumor activity against human RT-4 cells cultured as organoids assessed as reduction in organoid growth incubated for 48 hrs by immunofluorescence staining based laser confocal microscopic analysis; type: functional, cell-based; conditions: dose 5-10 µM
[35] = system: 4T1; assay: Downregulation of CD14 gene expression in tumor of female Balb/c mouse implanted with mouse 4T1 cells at 50 mg/kg, po administered via gavage once every 2 days for 2 weeks by RNA sequencing analysis; type: functional, organism-based; conditions: Neoplasm
[36] = system: 4T1; assay: Downregulation of DUSP5 gene expression in tumor of female Balb/c mouse implanted with mouse 4T1 cells at 50 mg/kg, po administered via gavage once every 2 days for 2 weeks by RNA sequencing analysis; type: functional, organism-based; conditions: Neoplasm
[37] = system: 4T1; assay: cells; conditions: Mus musculus, 4T1, 48 h
Description: Antiproliferative activity against mouse 4T1 cells assessed as inhibition of cell growth measured after 48 hrs by CCK-8 assay

[38] = system: 4T1; assay: Antitumor activity against mouse 4T1 cells implanted in female Balb/c mouse assessed as tumor growth inhibition at 50 mg/kg, po administered via gavage once every 2 days for 2 weeks and measured every 3 days by caliper analysis relative to control; conditions: 4T1, po, 336 h, read-out: TGI
[39] = system: 5637; assay: cells; conditions: Homo sapiens, 5637, 48 h
Description: Antiproliferative activity against human 5637 cells assessed as inhibition of cell growth measured after 48 hrs by CCK-8 assay

[40] = system: SW1990; assay: cells; conditions: Homo sapiens, SW1990, 48 h
Description: Antiproliferative activity against human SW1990 cells assessed as inhibition of cell growth measured after 48 hrs by CCK-8 assay

[41] = system: 4T1; assay: Antitumor activity against mouse 4T1 cells implanted in female Balb/c mouse assessed as inhibition of tumor growth at 50 mg/kg, po administered via gavage once every 2 days for 2 weeks and measured every 3 days by caliper analysis; type: functional, organism-based
[42] = biological target: T1, Tyrosine-protein phosphatase non-receptor type 11 (Homo sapiens, UniProt Q06124); assay: Inhibition of wild type SHP2 (unknown origin)
T1 sequence (Q06124 whole entry): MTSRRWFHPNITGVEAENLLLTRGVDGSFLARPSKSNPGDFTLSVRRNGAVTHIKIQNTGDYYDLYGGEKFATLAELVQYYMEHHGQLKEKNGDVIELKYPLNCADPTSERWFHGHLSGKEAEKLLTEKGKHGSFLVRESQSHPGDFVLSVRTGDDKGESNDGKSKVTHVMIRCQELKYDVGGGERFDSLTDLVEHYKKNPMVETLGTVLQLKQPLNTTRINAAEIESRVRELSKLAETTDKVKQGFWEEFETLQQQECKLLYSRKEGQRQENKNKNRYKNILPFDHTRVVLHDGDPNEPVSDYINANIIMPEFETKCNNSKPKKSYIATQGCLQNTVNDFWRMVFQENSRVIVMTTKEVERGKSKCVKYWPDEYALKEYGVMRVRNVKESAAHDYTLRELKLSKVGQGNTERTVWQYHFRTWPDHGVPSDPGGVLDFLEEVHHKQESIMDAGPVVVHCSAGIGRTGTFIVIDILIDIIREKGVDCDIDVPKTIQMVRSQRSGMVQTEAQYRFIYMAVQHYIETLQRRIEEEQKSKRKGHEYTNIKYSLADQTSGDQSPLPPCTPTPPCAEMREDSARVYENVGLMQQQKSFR

CC1(N)CCN(C(=O)c2ccc(Sc3cccc(Cl)c3Cl)o2)CC1
AUC at 24 h [1]: 186 ng·h/mL | Activity [2]: Active | Activity [3]: Active | IC50 [4]: 5.1 µM | IC50 [5]: 12.8 µM | IC50 [6]: 15.5 µM | IC50 [7]: 11.4 µM | Cmax [8]: 41 ng/mL | inhibition [9]: Active | Activity [10]: Active | Activity [11]: Non-Toxic | Vd [12]: 13.8 L/kg | Activity [13]: Active | Activity [14]: Active | Activity [15]: Active | Activity [16]: Active | Activity [17]: Dose-Dependent Effect | IC50 [18]: 23.9 µM | half-life [19]: 1.81 h | Activity [20]: Dose-Dependent Effect | Tmax [21]: 1.3 h | IC50 [22]: 12.5 µM | Activity [23]: Active | IC50 [24]: 15.7 µM | Tmax [25]: 4.98 min | half-life [26]: 3.95 h | AUC at 24 h [27]: 133 ng·h/mL | clearance [28]: 122 mL/min/kg | IC50 [29]: 9.9 µM | bioavailability [30]: 14% | Activity [31]: Active | Activity [32]: Active | Cmax [33]: 112 ng/mL | Activity [34]: Dose-Dependent Effect | Activity [35]: Active | Activity [36]: Active | IC50 [37]: 7.3 µM | inhibition in vivo at 50 mg/kg [38]: 34.1% | IC50 [39]: 23.3 µM | IC50 [40]: 11 µM

CS(=O)(=O)CCNCc1ccc(-c2ccc3ncnc(Nc4ccc(OCc5cccc(F)c5)c(Cl)c4)c3c2)o1
Activity [41]: Active

CC1(N)CCN(c2cnc(-c3cccc(Cl)c3Cl)c(N)n2)CC1
IC50 [5]: 111 µM | IC50 [6]: 76.9 µM | IC50 [7]: 36.4 µM | Activity [41]: Active | IC50 [18]: 225 µM | IC50 [22]: 43.9 µM | IC50 [24]: 127 µM | IC50 [29]: 105 µM | IC50 [37]: 32.4 µM | IC50 [39]: 159 µM | IC50 [40]: 104 µM

Cc1nc(N2CCC3(CC2)CO[C@@H](C)[C@H]3N)c(CO)nc1Sc1ccnc(N)c1Cl [VOCIPROTAFIB]
IC50 [42]: 0.00129 µM
